Results taken from US9540648B2, “Therapeutic use of activators of zinc finger protein GL13” (Universität Leipzig, priority 2012, dated 2017).

How the values were obtained:
mouse hepatocytes = experiment: Cyclopamine: accumulation of neutral lipids in cultured mouse hepatocytes (Nile red staining); type: cell-based; settings: 10 μM cyclopamine, 72 h
Method: (§1) Cyclopamine (Sigma) was dissolved in DMSO (10 mM). Mouse and human hepatocytes were incubated for 72 h in the presence of 10 μM Cyclopamine. Control cultures were incubated with culture medium containing vehicle (0.1% DMSO).
(§2) Fluorescent staining of neutral lipids in hepatocytes was performed using Nile red (Biomol). Hepatocytes were fixed with 4% buffered paraformaldehyde for 10 min. For Nile red staining, a 200 nM working solution in phosphate-buffered saline (PBS) was prepared from a 1 mM stock solution in DMSO and was added directly to the fixed cells. After 20 min of incubation at room temperature cells were washed in PBS. Nuclei were counterstained with DAPI (Sigma).
(§3) Primary hepatocytes from SLC mice were isolated by collagenase perfusion of the liver. Cell suspension was carefully cleared from non-parenchymal cells by differential centrifugation. Finally, hepatocytes were suspended in Williams Medium E containing 10% fetal calf serum and further additions as described (Klingmüller et al., 2006), and were plated onto 6-well or 12-well plates precoated with collagen type I (Klingmüller et al., 2006; Gebhardt et al., 1982). After 4 h, serum-free medium was used throughout cultivation. Cryopreserved human hepatocytes were purchased from TebuBio (Offenbach, Germany). […]

human hepatocytes = experiment: Cyclopamine: accumulation of neutral lipids in cultured human hepatocytes (Nile red staining); type: cell-based; settings: 10 μM cyclopamine, 72 h
Method: as §1, §2, §3

C57Bl/6-N hepatocytes [1] = experiment: Silencing of GLI family members by siRNA in hepatocytes, gene expression by qRT-PCR; type: cell-based, murine; settings: for expression of lipogenic transcription factor Srebp1 (mRNA): FIG. 5
Description: Total RNA from hepatocytes, liver tissue and other organs was extracted using TRIzol (Peqlab, Erlangen). Total RNA from adipose tissue was extracted using the RNeasy Lipid Tissue mini Kit (Quiagen, Hilden). RNA was reverse transcribed using oligo(dt) primers and IM Promm II reverse transcriptase (Promega). The resulting cDNA samples were then quantified for each test gene using target gene-specific primers designed using the online tools Universal ProbeLibrary Probe-Finder software, Perl Primer and Primer 3.
(§4) The levels of all mRNA transcripts were determined in duplicate by qRT-PCR using the Light Cycler® 2.0 Instrument and the LightCycler® FastStart DNA Master PLUS SYBR Green I (Roche). Using the standard curve method, the absolute quantitation of specific PCR products for each primer set was generated. For normalization, β-actin was amplified from each sample.
To analyze the role of GLI family members in C57Bl/6-N hepatocytes on gene expression, murine hepatocytes were isolated and cultured for 72 h upon transfection with siRNA silencing either GLI1, GLI2 or GLI3.
GLI1-, GLI2- and GLI3-specific siRNAs and respective scrambled control siRNAs were purchased from Invitrogen. The following double stranded siRNAs were used for inhibition of GLI1, GLI2 and GLI3:
(§5) Freshly isolated hepatocytes were seeded at a density of 100.000 cells per well of 12-well plates in normal culture medium containing 10% FCS. After 4 h, serum-free medium was used and chemically synthesized siRNAs ([…] for GLI2 and GLI3, 50 nM for GLI1) were transfected with Interferin from Peqlab (Erlangen) according to the manufacturer's instructions. Twenty-four hours after transfection, the medium was changed and fresh medium without siRNA was added. Changes in gene expression were analyzed by qRT PCR at different time points up to 72 h post-transfection as indicated in figure legends using primers as described above in Example 2 and the following additional primers: […]

C57Bl/6-N hepatocytes [2] = experiment: Oil red O staining of neutral lipids in cultured hepatocytes transfected with GLI siRNA; type: cell-based, murine; settings: 72 h after siRNA transfection, FIG. 8
Method: FIG. 8 Staining of neutral lipids by Oil red O in cultured hepatocytes transfected with a) mock, b) GLI1 siRNA, c) GLI2 siRNA and d) GLI3 siRNA determined after 72 h.
as §5
On the contrary neither GLI1 siRNA (FIG. 8b) nor GLI2 siRNA (FIG. 8c) was capable of mediating this effect.

[3] = tested on: murine C57BL/6-N hepatocytes; experiment: Silencing of Sufu by siRNA in hepatocytes, gene expression by real time PCR; type: cell-based
Method: as §4, §5
Sufu is a known inhibitor of hedgehog signalling. The transfection of hepatocytes with siRNA and real time PCR was performed as described in Example 3. The following additional primers were used: […]

## CC1=C2C[C@H]3[C@@H](CC=C4C[C@@H](O)CC[C@@]43C)[C@@H]2CC[C@]12O[C@@H]1C[C@H](C)CN[C@H]1[C@H]2C [cyclopamine, Cyclopamine]
Mouse hepatocytes
  steatosis (accumulation of neutral lipids): marked steatosis
Human hepatocytes
  steatosis (accumulation of neutral lipids): marked steatosis

## GLI1 siRNA: double stranded siRNA for inhibition of GLI1, SEQ ID No. 1 and 2, purchased from Invitrogen (chain 1 UGGAGAACCUUAGGCUGGAUCAGCU; chain 2 AGCUGAUCCAGCCUAAGGUUCUCCA; listed as RNA, chemistry not given here)
C57Bl/6-N hepatocytes [1]; siRNA vs nonsense RNA control
  expression of lipogenic transcription factor Srebp1 (mRNA): not
C57Bl/6-N hepatocytes [2]
  accumulation of fat droplets (Oil red O staining of neutral lipids): comparable phenotype as wild type hepatocytes

## GLI2 siRNA: double stranded siRNA for inhibition of GLI2, SEQ ID No. 3 and 4, purchased from Invitrogen (chain 1 CCACAACCACAACGUUGCUCAGACA; chain 2 UGUCUGAGCAAGCUUGUGGUUGUGG; listed as RNA, chemistry not given here)
C57Bl/6-N hepatocytes [1]; siRNA vs nonsense RNA control
  expression of lipogenic transcription factor Srebp1 (mRNA): not
C57Bl/6-N hepatocytes [2]
  accumulation of fat droplets (Oil red O staining of neutral lipids): comparable phenotype as wild type hepatocytes

## GLI3 siRNA: double stranded siRNA for inhibition of GLI3, SEQ ID No. 5 and 6, purchased from Invitrogen (chain 1 UAGCAAGGCCAUCUUGGUCUUCAGG; chain 2 CCUGAAGACCAAGAUGGCCUUGCUA; listed as RNA, chemistry not given here)
C57Bl/6-N hepatocytes [1]; Gli siRNA, FIG. 23A
  IGF1 mRNA: downregulates
C57Bl/6-N hepatocytes [1]; Gli siRNA, FIG. 23B
  IGFBP1 mRNA: upregulated
C57Bl/6-N hepatocytes [1]; siRNA vs nonsense RNA control, FIG. 4
  expression of lipogenic transcription factor PPAR-γ (mRNA): significantly increased
C57Bl/6-N hepatocytes [1]; siRNA vs nonsense RNA control
  expression of lipogenic transcription factor Srebp1 (mRNA): significantly increased
C57Bl/6-N hepatocytes [1]; siRNA vs nonsense RNA control, FIG. 6
  expression of lipogenic enzyme ELOVL fatty acid elongase 6 (Elovl6): increased expression
C57Bl/6-N hepatocytes [1]; siRNA vs nonsense RNA control, FIG. 7
  expression of lipogenic enzyme fatty acid synthase (Fasn): increased expression
C57Bl/6-N hepatocytes [2]
  accumulation of fat droplets (Oil red O staining of neutral lipids): pronounced accumulation of fat droplets

## Sufu siRNA: double stranded siRNA inhibiting Sufu, SEQ ID No. 7 and 8; preferred GLI3 activating siRNA (chain 1 CCCUUGGACUAUGUUAGCAUGUACA; chain 2 UGUACAUGCUAACAUAGUCCAAGGG; listed as RNA, chemistry not given here)
[3]; FIG. 9
  expression of GLI2: increased expression
  expression of GLI3: increased expression
  expression of Indian hedgehog (IHH): increased expression
  silencing of Sufu: Successful silencing
[3]; FIG. 10
  expression of GATA4: increased expression
  hepatocellular expression of PPAR-γ: reduced
  hepatocellular expression of Srebp1: reduced
[3]; FIG. 19
  expression of Cyp17A1: decreased expression
